According to patent publication US7846963B2, “2-oxo-heterocyclic compounds and the pharmaceutical compositions comprising the same” (Korea Research Institute of Bioscience and Biotechnology, priority 2003, dated 2010):

The compounds below were run on production of TNF-alpha in RAW 264.7 cells (assay: Inhibition of TNF-alpha production in LPS-treated RAW 264.7 cells, ELISA of culture supernatant). Details: Mus musculus, RAW264.7, Table 23, LPS 0.3 μg/ml, 24 hours, compounds up to 10 μM, IC50 unit inferred.
Format: cell-based, mouse
Protocol: To test the inhibiting activity of the compounds prepared from above Examples on the production of TNF-alpha, the concentration of TNF-alpha in the cell supernatant was measured.
Each 200 μl of RAW 264.7 cells (ATCC, USA), a mouse macrophage cell line was seeded onto each well of 96-well microtiter plate (Nunc, Sweden) to the concentration ranging from 1×10^6 cells/ml to 5×10^6 cells/ml, and incubated in DMEM (Dulbeco's modified eagles medium) media containing 5% FBS (fetal bovine serum) at 37° C. in 5% CO2 incubator.
Various concentrations of the compounds of the present invention ranging from […] to 10 μM and LPS (Sigma, USA) in the final concentration of 0.3 μg/ml were treated to activated cell simultaneously. The treated cells were cultured at 37° C. for 24 hours in 5% CO2 incubator and the cultured cells were collected after the cultivation
And then the concentration of TNF-alpha secreted from the culture supernatant of RAW 264.7 cells was determined by ELISA according to the manufacture's instruction (R&D Systems, Minneapolis, Minn.).
The result was shown in Table 23 (AA: IC50's<1, A: IC50's<5, B: IC50's<10, C: IC50's>10).

| Compound | IC50 [µM] |
| --- | --- |
| O=C(CCC1=CCN(CCc2ccc([N+](=O)[O-])cc2)C1=O)NO [Example 33, N-hydroxy-3-{1-[2-(4-nitro-phenyl)-ethyl]-2-oxo-2,5-dihydro-1H-pyrrol-3-yl}-propionamide] | < 10 |
| O=C(CC1=CCCN(Cc2ccc([N+](=O)[O-])cc2)C1=O)NO [Example 84, N-hydroxy-2-[1-(4-nitro-benzyl)-2-oxo-1,2,5,6-tetrahydro-pyridin-3-yl)-N-hydroxy-acetamide] | < 5 |
| O=C(CCC1=CCN(CCc2ccc3ccccc3c2)C1=O)NO [Example 53, N-hydroxy-3-[1-(2-naphthalene-2-yl-ethyl)-2-oxo-2,5-dihydro-1H-pyrrol-3-yl]-propionamide] | < 1 |
| Cc1ccc(CCCN2CC=C(CCC(=O)NO)C2=O)cc1 [Example 40, N-hydroxy-3-[2-oxo-1-(3-p-tolyl-propyl)-2,5-dihydro-1H-pyrrol-3-yl]-propionamide] | < 1 |
| O=C(CCC1=CCCN(Cc2ccc([N+](=O)[O-])cc2)C1=O)NO [Example 59, N-hydroxy-3-[1-(4-nitro-benzyl)-2-oxo-1,2,5,6-tetrahydro-pyridin-3-yl)-propionamide] | < 5 |
| Cc1ccc(CN2CC=C(CCC(=O)NO)C2=O)cc1 [Example 8, N-hydroxy-3-[1-(4-methyl-benzyl)-2-oxo-2,5-dihydro-1H-pyrrol-3-yl]-propionamide] | < 5 |
| O=C(CCC1=CCCN(Cc2ccccc2)C1=O)NO [Example 58, N-hydroxy-3-(1-benzyl-2-oxo-1,2,5,6-tetrahydro-pyridin-3-yl)-propionic acid] | < 5 |
| COc1ccccc1CN1CC=C(CCC(=O)NO)C1=O [Example 9, N-hydroxy-3-[1-(2-methoxy-benzyl)-2-oxo-2,5-dihydro-1H-pyrrol-3-yl]-propionamide] | < 10 |
| O=C(O)CCC1=CCN(Cc2ccccc2)C1=O [Example 17, 3-(1-benzyl-2-oxo-2,5-dihydro-1H-pyrrol-3-yl)-propionic acid] | > 10 |
| O=C(CCC1=CCN(Cc2ccc3ccccc3c2)C1=O)NO [Example 49, N-hydroxy-3-(1-naphthalene-2-ylmethyl-2-oxo-2,5-dihydro-1H-pyrrol-3-yl)-propionamide] | < 1 |
| COc1ccc(CN2CCC=C(CCCC(=O)NO)C2=O)cc1 [Example 95, 4-[1-(4-methoxy-benzyl)-2-oxo-1,2,5,6-tetrahydro-pyridin-3-yl]-N-hydroxy-butylamide] | < 5 |
| COc1ccc(CN2CCC=C(CCC(=O)O)C2=O)c(OC)c1 [Example 63, 3-[1-(2,4-dimethoxybenzyl)-2-oxo-1,2,5,6-tetrahydro-pyridin-3-yl]-propionic acid] | > 10 |
| O=C(CC1=CCN(CCCCc2ccccc2)C1=O)NO [Example 23, N-hydroxy-2-[2-oxo-1-(4-phenyl-butyl)-2,5-dihydro-1H-pyrrol-3-yl]-acetamide] | > 10 |
| O=C(O)CCC1=CCCN(Cc2ccc([N+](=O)[O-])cc2)C1=O [Example 65, 3-[1-(4-nitro-benzyl)-2-oxo-1,2,5,6-tetrahydro-pyridin-3-yl)-propionic acid] | > 10 |
| Cc1ccc(S(=O)(=O)Nc2ccc(CN3CC=C(CCC(=O)NO)C3=O)cc2)cc1 [Example 19, N-hydroxy-3-{2-oxo-1-[4-(toluene-4-sulfonylamino)-benzyl]-2,5-dihydro-1H-pyrrol-3-yl}-propionamide] | < 10 |
| C=CCN1CC=C(CCC(=O)NO)C1=O [Example 51, 3-(1-allyl-2-oxo-2,5-dihydro-1H-pyrrol-3-yl)-N-hydroxy-propionamide] | > 10 |
| O=C(CCC1=CCN(CCCc2ccc(Br)cc2)C1=O)NO [Example 44, 3-{1-[3-(4-bromo-phenyl)-propyl]-2-oxo-2,5-dihydro-1H-pyrrol-3-yl]-N-hydroxy-propionamide] | < 5 |
| COc1ccc(CN2CCC=C(CC(=O)O)C2=O)c(OC)c1 [Example 87, [1-(2,4-dimethoxy-benzyl)-2-oxo-1,2,5,6-tetrahydro-pyridin-3-yl]-acetic acid] | < 1 |
| O=C(CCC1=CCN(CCCc2ccccc2)C1=O)NO [Example 4, N-hydroxy-3-[2-oxo-1-(3-phenyl-propyl)-2,5-dihydro-1H-pyrrol-3-yl]-propionamide] | < 1 |

| Compound | IC50 [µM] |
| --- | --- |
| O=C(CCC1=CCN(CCc2cccs2)C1=O)NO [Example 54, N-hydroxy-3-[2-oxo-1-(2-thiophen-2-yl-ethyl)-2,5-dihydro-1H-pyrrol-3-yl]-propionamide] | < 5 |
| O=C(CC1CCCN(CCc2ccccc2)C1=O)NO (centres unmarked) [Example 93, (2-oxo-1-phenethyl-piperidine-3-yl)-N-hydroxy-acetamide] | < 5 |
| O=C(CCC1=CCN(CCc2cccc([N+](=O)[O-])c2)C1=O)NO [Example 32, N-hydroxy-3-{1-[2-(3-nitro-phenyl)-ethyl]-2-oxo-2,5-dihydro-1H-pyrrol-3-yl}-propionamide] | > 10 |
| COc1ccc(CN2CCC=C(CCC(=O)NO)C2=O)c(OC)c1 [Example 57, 3-[1-(2,4-Dimethoxybenzyl)-2-oxo-1,2,5,6-tetrahydropyridin-3-yl]N-hydroxypropionamide] | < 10 |
| Cc1ccc(S(=O)(=O)Nc2ccc(CN3CCC=C(CCC(=O)O)C3=O)cc2)cc1 [Example 80] | < 1 |
| O=C(CCC1=CCN(CCc2ccccc2F)C1=O)NO [Example 28, 3-{1-[2-(2-fluoro-phenyl)-ethyl]-2-oxo-2,5-dihydro-1H-pyrrol-3-yl}-N-hydroxy-propionamide] | < 5 |
| COc1ccc(CN2CC=C(CC(=O)NO)C2=O)c(OC)c1 [Example 21, 2-[1-(2,4-dimethoxy-benzyl)-2-oxo-2,5-dihydro-1H-pyrrol-3-yl]-N-hydroxy-acetamide] | > 10 |
| O=C(CCC1=CCN(Cc2ccc(NC(=O)c3ccccc3)cc2)C1=O)NO [Example 18, N-{4-[3-(2-hydroxycarbamoyl-ethyl)-2-oxo-2,5-dihydro-pyrrole-1-yl-methyl]-phenyl}-benzamide] | > 10 |
| O=C(CC1=CCCN(Cc2ccccc2)C1=O)NO [Example 83, 2-(1-benzyl-2-oxo-1,2,5,6-tetrahydro-pyridin-3-yl)-N-hydroxy-acetamide] | < 5 |
| O=C(CCCC1=CCCN(CCc2ccccc2)C1=O)NO [Example 96, 4-(1-phenethyl-2-oxo-1,2,5,6-tetrahydro-pyridin-3-yl)-N-hydroxy-butylamide] | < 5 |
| Cc1ccccc1CN1CC=C(CCC(=O)NO)C1=O [Example 6, N-hydroxy-3-[1-(2-methyl-benzyl)-2-oxo-2,5-dihydro-1H-pyrrol-3-yl]-propionamide] | < 5 |
| COc1ccc(CCCN2CC=C(CCC(=O)NO)C2=O)cc1 [Example 46, N-hydroxy-3-{1-[3-(4-methoxy-phenyl)-propyl]-2-oxo-2,5-dihydro-1H-pyrrol-3-yl]-propionamide] | < 10 |
| O=C(CCCC1=CCCN(CCCCc2ccccc2)C1=O)NO [Example 98] | < 5 |
| O=C(CC1CCN(Cc2ccccc2)C1=O)NO (centres unmarked) [Example 25, 2-(1-benzyl-2-oxo-pyrrolidin-3-yl)-N-hydroxy-acetamide] | > 10 |
| O=C(CCC1=CCN(Cc2ccc(Br)cc2)C1=O)NO [Example 12, 3-[1-(4-bromo-benzyl)-2-oxo-2,5-dihydro-1H-pyrrol-3-yl]-N-hydroxy-propionamide] | < 1 |
| O=C(CCC1=CCN(CCc2cccc3ccccc23)C1=O)NO [Example 52, N-hydroxy-3-[1-(2-naphthalene-1-yl-ethyl)-2-oxo-2,5-dihydro-1H-pyrrol-3-yl]-propionamide] | < 5 |
| CN1CC=C(CCC(=O)NO)C1=O [Example 50, N-hydroxy-3-(1-methyl-2-oxo-2,5-dihydro-1H-pyrrol-3-yl)-propionamide] | > 10 |
| O=C(CCC1=CCN(CCc2ccccc2)C1=O)NO [Example 3, N-hydroxy-3-(2-oxo-1-phenethyl-2,5-dihydro-1H-pyrrol-3-yl)-propionamide] | < 5 |
| O=C(CCC1=CCCN(Cc2ccc(NC(=O)c3ccccc3)cc2)C1=O)NO [Example 75, N-4-[5-(2-hydroxycarbamoyl-ethyl)-6-oxo-3,6-dihydro-2-pyridin-1-yl-methyl]-phenyl-benzamide] | > 10 |
